Article PMC7582707, “Synthesis and Properties of CurNQ for the Theranostic Application in Ovarian Cancer Intervention” (Molecules, 2020)
In brackets after ≈: the same amount, converted by molar mass.

Columns and labels:
[1] = test system: OVCAR-5; assay: Cell viability / cytotoxicity by high content imaging (DAPI nuclei count); assay type: cell-based; conditions: for IC50: OVCAR-5, 24 h treatment
Method: (§1) The ovarian carcinoma cancer cell lines OVCAR-5 and SKOV3 were purchased from Fox Chase Cancer Facility, USA, Jerkitown, […]. The healthy fibroblast cell line NIH: 3T3 was utilized as a control. The cells were cultured in DMEM with the media being supplemented with 10% fetal bovine serum and 1% penicillin-streptomycin. Cells were incubated at 37 °C with 5% CO2. Upon the cells reaching 70–80% confluency, the cells were washed, and sub-cultured by harvesting using trypsin/EDTA.
(§2) Cells were grown until 80% confluency prior to utilization. Upon confluency, media was removed, and cells were washed twice in sterile PBS. Trypsin/EDTA was then added to the flasks and incubated at 37 °C for 5 min, allowing the cells to detach from the bottom of the flask. These cells were then collected and centrifuged. The pellet was resuspended, and the cells were counted using the trypan blue exclusion assay. A predetermined and equal number of cells were then added into each well of a 96-well plate. The cells were incubated overnight at 37 °C and at 5% CO2, allowing the cells to attach to the plates. […] Each treatment was performed in quintuplicate. Treatments occurred for 24 h. Subsequent to this time period, media was removed, and cells were fixed with 5% formaldehyde in PBS for 20 min. Next, cells were incubated for 15 min in a 1 µg/mL solution of DAPI. The plates were then washed several times with PBS to remove all residual DAPI and to reduce background fluorescence. All plates were stored in the dark. Plates were then run on the Logos Biosystem CELENA® X High Content Imaging System and analyses were performed using their proprietary software. IC50 values were calculated using a Prism Graph. Using the Logos Biosystem software, a pipeline was set up to determine the nuclei count, form factor, compactness and eccentricity. The following definitions were used:Eccentricity = ratio of the distance between the foci of the ellipse and its major axis length. Compactness = mean squared distance of the object’s pixels from the centroid divided by the area. Form Factor = 4 × π × Area/Perimeter2

[2] = test system: SKOV3; assay: as above; assay type: cell-based; conditions: for IC50: Homo sapiens, SK-OV-3, SKOV3, 24 h treatment
Method: as §1, §2

[3] = Cell viability / cytotoxicity by high content imaging, healthy fibroblast control; assay type: cell-based; conditions: mouse, NIH:3T3 fibroblast cells
Method: as §1, §2

[4] = test system: NIH:3T3; assay: as above; assay type: cell-based; conditions: Mus musculus, NIH3T3; NIH:3T3 healthy fibroblast, 24 h treatment
Method: as §1, §2

[5] = test system: OVCAR-5 cells; assay: Nuclear morphology analysis by high content imaging (eccentricity, compactness, form factor); assay type: cell-based; conditions: 24 h; for form factor of nuclei: OVCAR-5, treatment greater than 50 µM
Method: Cells were grown until 80% confluency prior to utilization. Upon confluency, media was removed, and cells were washed twice in sterile PBS. Trypsin/EDTA was then added to the flasks and incubated at 37 °C for 5 min, allowing the cells to detach from the bottom of the flask. These cells were then collected and centrifuged. The pellet was resuspended, and the cells were counted using the trypan blue exclusion assay. A predetermined and equal number of cells were then added into each well of a 96-well plate. The cells were incubated overnight at 37 °C and at 5% CO2, allowing the cells to attach to the plates. […] Each treatment was performed in quintuplicate. Treatments occurred for 24 h. Subsequent to this time period, media was removed, and cells were fixed with 5% formaldehyde in PBS for 20 min. Next, cells were incubated for 15 min in a 1 µg/mL solution of DAPI. The plates were then washed several times with PBS to remove all residual DAPI and to reduce background fluorescence.

[6] = Saturation solubility at different pH; assay type: physicochemical
Excerpt: Consequently, cancer targeting and specific release of an active agent at the tumor location is essential. Multiple tactics can be employed to achieve this. Herein, we exploited the acidification of the tumor microenvironment that accompanies malignant transformation for targeted detection and treatment. […] The slight acidification of the microenvironment surrounding a tumor is a hallmark feature of cancer and is termed the Warburg effect. Therefore, CurNQ can detect this change in pH associated with malignant transformation resulting from its pH specific solubility.
Figure 4 Fluorescence properties and pH specific properties of CurNQ. (A) Excitation and emission spectra of 1.5 µM solution of CurNQ. (B) Saturation solubility of a I.5 µM solution of CurNQ at pH 7.4 and 6.8.

In the case of `O=C1C=C(Br)C(=O)c2ccccc21` [BrNQ, 2-bromo-1,4-naphthoquinone, reference compound], the viability at 20 µM ([1]; Homo sapiens, OVCAR-5, 24 h, read-out: cell viability) is reported as < 10%, the IC50 ([1]; Homo sapiens) is reported as 4.85 µM and the IC50 [2] is reported as 2.74 µM. The viability at 24 h ([3]; NIH:3T3, lowest viability reached) was < 15%, the IC50 [4] was 6.91 µM and the “form factor of nuclei” value [5] was “large increase”.
For `COc1cc(/C=C/C(=O)/C=C(O)/C=C/c2ccc(OC3=CC(=O)c4ccccc4C3=O)c(OC)c2)ccc1OC1=CC(=O)c2ccccc2C1=O` [CurNQ, 2,2′-((((1E,3Z,6E)-3-hydroxy-5-oxohepta-1,3,6-triene-1,7-diyl)bis(2-methoxy-4,1-phenylene))bis(oxy))bis(naphthalene-1,4-dione)], the solubility ([6]; pH 6.8, aqueous buffer) was 20.7 µM (≈ 14.1 µg/mL), the solubility ([6]; pH 7.4, aqueous buffer) was 11.2 µM (≈ 7.59 µg/mL) and the IC50 ([1]; Homo sapiens) was 4.05 µM. For the same compound, the cell viability ([1]; OVCAR-5, in vitro cytotoxicity assay) was “below 50%”, the cell viability ([1]; OVCAR-5, low concentrations, 24-h incubation) was “below 40%” and the IC50 [2] was 5.35 µM. For the same compound, the cell viability ([2]; SKOV3, in vitro cytotoxicity assay) was “below 50%”, the viability at 24 h, 100 µM ([3]; NIH:3T3, 100 µM) was 44% and the IC50 [4] was 65.5 µM. For the same compound, the eccentricity of nuclei ([5]; OVCAR-5, 5-100 µM) was “decreased in a dose-dependent manner” and the “form factor of nuclei” value [5] was “large increase”.
With `COc1cc(/C=C/C(=O)CC(=O)/C=C/c2ccc(O)c(OC)c2)ccc1O` [CUR, diferuloylmethane, reference compound] the IC50 ([1]; Homo sapiens) was 9.64 µM, the IC50 [2] was 4.79 µM and the IC50 [4] was 43.9 µM.
